According to paper PMC3557921 (Journal of Medicinal Chemistry, 2012):

Target: T1, β-catenin (armadillo-repeat region of human β-catenin) (Homo sapiens, UniProt P35222)
T1 sequence (P35222 134-671 limits assumed): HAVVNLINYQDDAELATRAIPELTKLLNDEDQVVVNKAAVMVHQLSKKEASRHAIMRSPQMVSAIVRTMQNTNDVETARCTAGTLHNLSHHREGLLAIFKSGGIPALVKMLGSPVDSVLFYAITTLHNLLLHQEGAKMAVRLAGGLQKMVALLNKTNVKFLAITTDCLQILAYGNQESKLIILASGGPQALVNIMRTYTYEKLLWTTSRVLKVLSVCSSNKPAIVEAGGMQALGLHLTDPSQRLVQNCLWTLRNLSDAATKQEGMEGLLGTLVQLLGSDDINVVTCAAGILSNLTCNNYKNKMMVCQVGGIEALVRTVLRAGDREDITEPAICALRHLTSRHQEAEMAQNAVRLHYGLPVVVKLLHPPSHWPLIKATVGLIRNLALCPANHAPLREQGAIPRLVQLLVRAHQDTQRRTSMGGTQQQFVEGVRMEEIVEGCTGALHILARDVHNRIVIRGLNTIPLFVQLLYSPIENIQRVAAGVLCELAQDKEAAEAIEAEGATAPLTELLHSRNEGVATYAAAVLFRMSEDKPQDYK
Experiment: 1D 1H STD-NMR
Format: binding
Settings: 30 μM protein, 1 mM ligand; 100 mM Tris, 150 mM NaCl, 2 mM DTT, pH 7.4, 25 °C

SMILES: O=C1OC2(c3ccccc31)c1cc(Br)c(O)c(Br)c1Oc1c2cc(Br)c(O)c1Br [eosin Y]
- 1D 1H STD-NMR: predicted ligands fluorescein and eosin Y bind to the protein
